Results on 2 compounds are retold here after patent publication US20230271995A1, “METHODS FOR PRODUCING DIHYDRONICOTINAMIDE RIBOSIDE FROM NICOTINAMIDE RIBOSIDE CHLORIDE” (SOCIETE DES PRODUITS NESTLE S.A., priority 2020, published 2023).

The subject of one data set is NAD^+. The following applies: NR taken as a supplement; cited from earlier work.
Data set [1] is described as follows: Stability of NRH and NR aqueous solutions over 60 days of storage, remaining concentration by HPLC. Conditions: aqueous solution, atmosphere not stated.
Data set [2] in a line: Thermogravimetric analysis (TGA) thermal stability under N2. It counts as physicochemical. The following applies: 25 to 900° C.
Experimental: Characterization. […] Thermogravimetric analysis (TGA) thermograms were prepared in the range of 20-900° C. at a temperature rate of 10° C. min^−1 under N2 flow, using a TA Q100 instrument.

With `NC(=O)c1ccc[n+]([C@@H]2O[C@H](CO)[C@@H](O)[C@H]2O)c1` [NR, nicotinamide riboside], the “boost of the level of NAD^+” value in the data set on NAD^+ was 60%. Moreover, the degradation entry in data set [1] (4° C., 60 days) was “no detectable degradation”; in data set [1] (25° C., 30 days), 48%; in data set [1] (25° C., 60 days) it was 68%. Further, the “temperature of greatest weight loss (TGA)” value in data set [2] (10° C. min^−1, N2 atmosphere) is approximately 910 °C.
Regarding `NC(=O)c1ccc[n+]([C@@H]2O[C@H](CO)[C@@H](O)[C@H]2O)c1.[Cl-]` [NRCl, nicotinamide riboside chloride], the “weight loss at the temperature of greatest weight loss (TGA)” value in data set [2] (N2 atmosphere) is listed as “around 65%”.
